Measurements reported in patent US9370606B2, “Scaffold-free self-organized 3D synthetic tissue” (Two Cells, Co., Ltd., priority 2003, dated 2016).

Experiments:
[1] = tested on: synovium-derived synthetic tissue; assay: Influence of actin regulatory agents on contraction of a synthetic tissue; format: cell-based; conditions: dihydrocytochalasin B 3 μM, Y27632 10 μM; after detachment
Protocol: Dihydrocytochalasin B and Y27632 (Yamanouchi Pharmaceutical), which are known to have an actin depolymerizing function, were used to study their influence on the contraction of a synthetic tissue.
A synovium-derived synthetic tissue was produced by monolayer culture. The tissue was detached from a culture dish. The tissue was cultured in medium in the presence of dihydrocytochalasin B (3 μM) and Y27632 (10 μM). The transition of the radius of the tissue is shown every unit culture time in FIG. 40. […] Dihydrocytochalasin B and Y27632 are representative exemplary actin polymerization inhibitors. It will be understood by those skilled in the art that other actin polymerization inhibitors, such as cytochalasin D and the like, have a similar function.

[2] = tested on: synovial membrane-derived synthetic tissue; assay: Collagen content measurement (hydroxyproline) of synovial membrane-derived synthetic tissue; format: cell-based, pig
Protocol: In order to determine the collagen concentration, the collagen content was measured. […] The amount of produced collagen is substantially proportional to the time period of culture (FIG. 8). Next, it was determined whether or not collagen (extracellular matrix) is sufficiently secreted after implantation of a synthetic tissue of the present invention. The following protocol was used. Culture periods: 3 days, 7 days, 14 days, and 21 days, Concentrations of ascorbic acid 2-phosphate: 0 mM, 0.1 mM, 1 mM, and 5 mM Under the above-described conditions, a synovial membrane-derived synthetic tissue was produced. 6 N HCl was added to culture medium for the synthetic tissue, followed by hydrolysis at 105° C. for 18 hours. The medium was oxidized with chloramine T. Thereafter, the synthetic tissue was subjected to color development using Ehrlich's Reagent Solution (2 g of p-dimethylamino-benzaldehyde+3 ml of 60% perchloric acid; isopropanol was diluted at 3:13), followed by measurement of absorbance.

synovial cells = assay: HE staining of synthetic tissue produced from synovial cells; format: cell-based, pig
Protocol: Synovial cells were collected from a knee joint of a pig (LWD ternary hybrid, 2-3 months old upon removal of cells), followed by treatment with collagenase. The cells were cultured and subcultured in 10% FBS-DMEM medium (FBS was obtained from HyClone, DMEM was obtained from GIBCO). It has been reported that 10th passage synovial cells still have pluripotency. Although cells of 10 or less passages were used in this example, cells of more than 10 passages may be used depending on the application. Autotransplantation was performed for humans, where a sufficient number of cells were used and the cells were cultured for a short period of time so as to reduce the risk of infection or the like. Synovial cells (4.0×10^6) were cultured in 2 ml of 10% FBS-DMEM medium in a 35-mm dish, a 60-mm dish, or 100-mm dish (BD Biosciences, culture dish and multiwell cell culture plate). In this case, ascorbic acid was added. The dishes, the ascorbic acid concentrations, and the cell concentration are described below. Ascorbic acid 2-phosphate: 0 mM, 0.1 mM, 0.5 mM; 1 mM, 2 mM, and 5 mM Medium was exchanged two times per week until the end of a predetermined culture period. At the end of the culture period, a cell sheet was detached from the dish by pipetting circumferentially around the dish using a 100-μl pipetteman. After detachment, the cell sheet was made as flat as possible by lightly shaking the dish. […]

monolayer culture cells = assay: Conditions for detachment during production of a synthetic tissue; format: cell-based
Protocol: In this example, it was determined whether or not chemical detachment can be used instead of physical detachment (mechanical detachment (e.g., pipetting, etc.)) during the production of the synthetic tissue of the present invention.
Cell density: 4×10^4 cells/cm^2
Conditions: CO2 5%, air 95%, 37° C.
Medium: DMEM/F12 (FBS 10%) supplemented with 10 ng/ml TGFβ1.
This medium was used to conduct culture under the conditions described in Examples 14 and 15 to produce a synthetic tissue.
Medium: DMEM (GIBCO), FBS (HyClone) 10%, ITS+Premix (insulin, transferrin, selenious acid) (BD Biosciences) 6.25 μg/ml, dexamethasone (Sigma) 10^−7 M, ascorbic acid (WAKO) 50 μg/ml, pyrubic acid (SIGMA) 100 μg/ml.

With `C[C@@H](N)[C@H]1CC[C@H](C(=O)Nc2ccncc2)CC1` [Y27632] the “contraction of the synthetic tissue (radius over culture time)” value [1] was “inhibited”.
In the case of `O=C1O[C@H]([C@@H](O)CO)C(O)=C1OP(=O)(O)O` [ascorbic acid 2-phosphate], the “quantities of collagen produced, dependence on concentration” value ([2]; 0, 0.1, 1 and 5 mM, culture 3 to 21 days) is reported as 0 mM<<5 mM<1 mM≦0.1 mM, the “production of collagen (amount of hydroxyproline)” value ([2]; 0.1 mM or more added) is reported as “significantly promoted” and the “collagene content in the synthetic tissue” value ([2]; 0.1 mM or more added, any of the culture periods) is reported as “significantly increased”. For the same compound, the “formation of an extracellular matrix” value (synovial cells; 0.1 mM or more) was “promoted” and the “Eosin staining of the synthetic tissue” value (synovial cells; concentration of more than 0.1 mM) was “more intense”.
For `C=C1[C@@H](C)[C@H]2[C@H](Cc3ccccc3)NC(=O)[C@]23OC(=O)CC[C@H](O)CCC[C@@H](C)C/C=C/[C@H]3[C@@H]1O` [dihydrocytochalasin B, Dihydrocytochalasin B], the “contraction of the synthetic tissue (radius over culture time)” value [1] was “inhibited”.
With “TGF-β: transforming growth factor, 10 ng/ml TGFβ1 in medium” the “detachment of monolayer culture cells from the culture dish” value (monolayer culture cells; 10 ng/ml TGFβ1 in DMEM/F12 (FBS 10%)) was “more easily detached” and the “effect on culture cells” value (monolayer culture cells; added in monolayer culture, no physical stimulus) was “has the effect of detaching culture cells”.
